The text below walks through data of patent US8846704B2, “Thiopyrimidine-based compounds and uses thereof” (YM Biosciences Austraila Pty Ltd, priority 2007, dated 2014).

Assay [1] addresses T1, BaF3 TELJAK2 cells (BafT_J2) (Homo sapiens, UniProt O60674).
T1 construct: fused on or other part: TEL (ETV6) N-terminal part, coding nucleotides 1-487, serves as the oligomerising partner; It is fused through a Sal I site to the JAK2 kinase domain and expressed from pTRE2 in BaF3 cells bearing pTET-off; P41212 (Transcription factor ETV6)
The assay is described as follows: Cellular screening, BaF3 TEL:JAK2 cells, Alamar Blue. The assay is classed as cell-based. The following applies: 40 hr, read-out: BafT_J2 IC50_nM. A digest of the protocol:
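Tet-off BaF3 cells carrying a TEL (nt 1-487)–JAK2 kinase-domain fusion, grown factor-independently in DMEM with 10% Tet-approved FBS without WEHI 3B medium. Compounds were diluted to 20 μM in screening plates, and cells (50,000–200,000 cell/mL at 1.1×) were incubated 40 hr at 37 °C, 5% CO2. Alamar Blue was then added for 4-6 hours; read at 544 nm.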

Assay [2] concerns the target T2, BaF3 TELJAK3 cells (Homo sapiens, UniProt P52333).
T2 construct: fused on or other part: TEL (ETV6) N-terminal part, coding nucleotides 1-487, serves as the oligomerising partner; It is fused through a Sal I site to the JAK3 kinase domain and expressed from pTRE2 in BaF3 cells bearing pTET-off; P41212 (Transcription factor ETV6)
T2 sequence (P52333 1-1124): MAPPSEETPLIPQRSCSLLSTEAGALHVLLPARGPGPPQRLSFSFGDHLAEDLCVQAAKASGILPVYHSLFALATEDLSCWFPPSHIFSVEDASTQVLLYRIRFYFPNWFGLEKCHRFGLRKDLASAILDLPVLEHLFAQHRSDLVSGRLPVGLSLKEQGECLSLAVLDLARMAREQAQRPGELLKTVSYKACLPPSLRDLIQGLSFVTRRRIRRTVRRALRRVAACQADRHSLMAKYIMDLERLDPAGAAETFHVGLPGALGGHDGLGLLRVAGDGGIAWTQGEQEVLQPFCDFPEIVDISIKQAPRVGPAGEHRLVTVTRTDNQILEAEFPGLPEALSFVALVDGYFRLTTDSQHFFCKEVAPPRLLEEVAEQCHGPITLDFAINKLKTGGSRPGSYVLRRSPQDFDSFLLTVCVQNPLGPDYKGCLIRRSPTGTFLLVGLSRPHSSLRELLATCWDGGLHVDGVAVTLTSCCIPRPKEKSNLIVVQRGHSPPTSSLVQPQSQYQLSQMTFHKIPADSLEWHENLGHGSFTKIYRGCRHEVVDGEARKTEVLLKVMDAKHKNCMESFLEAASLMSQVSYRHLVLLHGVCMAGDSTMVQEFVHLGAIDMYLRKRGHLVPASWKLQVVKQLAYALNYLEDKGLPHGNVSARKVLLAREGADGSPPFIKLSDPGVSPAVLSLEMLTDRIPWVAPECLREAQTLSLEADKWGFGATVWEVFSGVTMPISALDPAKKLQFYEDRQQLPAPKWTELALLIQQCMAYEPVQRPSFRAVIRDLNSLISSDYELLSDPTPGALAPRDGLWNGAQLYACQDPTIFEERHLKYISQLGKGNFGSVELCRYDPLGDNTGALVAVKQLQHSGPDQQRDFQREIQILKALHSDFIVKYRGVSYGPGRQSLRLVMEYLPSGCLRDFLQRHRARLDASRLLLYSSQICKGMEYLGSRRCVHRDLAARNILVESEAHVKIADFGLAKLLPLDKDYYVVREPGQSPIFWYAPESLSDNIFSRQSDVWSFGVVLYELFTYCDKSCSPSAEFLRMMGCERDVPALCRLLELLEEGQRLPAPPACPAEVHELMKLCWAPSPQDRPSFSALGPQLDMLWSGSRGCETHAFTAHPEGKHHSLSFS
The assay is described as follows: Cellular screening, BaF3 TEL:JAK3 cells, Alamar Blue. In kind it is cell-based. The following applies: 40 hr, read-out: BafT_J3 IC50_nM. In a few lines: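 BaF3 cells carrying pTET-off and a TEL–JAK3 kinase-domain fusion, selected for growth-factor independence, were grown in DMEM with 10% Tet-approved FBS without WEHI 3B medium. Cells were exposed to compounds for 40 h at 37 °C, 5% CO2. Viability was read with Alamar Blue (4–6 h) at 544 nm.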

T1 sequence (O60674 whole entry, change not shown, the tested form may be a part): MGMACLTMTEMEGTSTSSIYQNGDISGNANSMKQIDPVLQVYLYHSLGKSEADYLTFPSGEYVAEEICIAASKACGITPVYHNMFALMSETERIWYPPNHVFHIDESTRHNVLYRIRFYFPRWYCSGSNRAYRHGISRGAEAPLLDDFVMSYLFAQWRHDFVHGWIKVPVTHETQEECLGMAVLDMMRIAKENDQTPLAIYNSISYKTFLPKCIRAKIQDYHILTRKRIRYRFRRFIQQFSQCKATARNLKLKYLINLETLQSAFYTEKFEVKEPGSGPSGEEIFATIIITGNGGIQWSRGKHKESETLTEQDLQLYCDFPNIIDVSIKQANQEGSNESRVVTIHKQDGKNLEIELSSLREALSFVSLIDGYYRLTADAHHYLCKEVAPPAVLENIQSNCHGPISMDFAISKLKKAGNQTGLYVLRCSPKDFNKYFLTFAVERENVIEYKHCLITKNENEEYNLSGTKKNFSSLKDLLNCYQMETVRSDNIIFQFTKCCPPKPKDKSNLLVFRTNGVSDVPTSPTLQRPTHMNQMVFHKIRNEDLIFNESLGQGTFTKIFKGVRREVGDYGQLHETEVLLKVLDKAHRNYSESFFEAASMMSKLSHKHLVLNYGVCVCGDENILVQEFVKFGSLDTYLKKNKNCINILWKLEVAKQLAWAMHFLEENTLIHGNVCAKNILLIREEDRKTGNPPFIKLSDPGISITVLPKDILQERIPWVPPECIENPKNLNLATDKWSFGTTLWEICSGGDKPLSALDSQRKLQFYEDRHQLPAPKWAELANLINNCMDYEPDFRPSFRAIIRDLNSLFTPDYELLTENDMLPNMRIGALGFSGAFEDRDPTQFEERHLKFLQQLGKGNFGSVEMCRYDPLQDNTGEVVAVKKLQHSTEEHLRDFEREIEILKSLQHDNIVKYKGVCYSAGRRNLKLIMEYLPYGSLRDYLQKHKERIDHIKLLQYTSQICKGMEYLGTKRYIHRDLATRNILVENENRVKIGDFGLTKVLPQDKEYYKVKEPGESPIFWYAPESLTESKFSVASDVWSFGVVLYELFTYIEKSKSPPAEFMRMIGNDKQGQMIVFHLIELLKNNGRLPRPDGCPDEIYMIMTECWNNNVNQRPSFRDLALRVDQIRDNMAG

Consider `Cc1cnc(Nc2ccc(N3CCOCC3)cc2)nc1Sc1ccc(N2C(=O)COCC2=O)cc1` [Compound 190, 4-(4-(5-methyl-2-(4-morpholinophenylao)pyrimidin-4-ylthio)phenyl)morpholine-3,5-dione], for which the GI50 in assay [1] and in assay [2] was more than 20 µM in each case.
On to `Cc1cnc(Nc2ccc(N3CCOCC3)cc2)nc1Sc1ccc(C(C#N)N2CCN(C)CC2)cc1` (centres unmarked) [Compound 225, 2-(4-(5-methyl-2-(4-morpholinophenylao)pyrimidin-4-ylthio)phenyl)-2-(4-methylpiperazin-1-yl)acetonitrile], for which the GI50 in assay [1] and in assay [2] was less than 5 µM throughout.
`NC(=O)c1ccc(Sc2ccnc(Nc3ccc(N4CCOCC4)cc3)n2)cc1` [Compound 207, 4-(2-(4-morpholinophenylao)pyrimidin-4-ylthio)benzamide]: the GI50 in assay [1] and in assay [2] was more than 20 µM throughout.
Turning to `Cc1cnc(Nc2ccc(N3CCOCC3)cc2)nc1Sc1ccc(CC#N)cc1` [Compound 222, 2-(4-(5-methyl-2-(4-morpholinophenylao)pyrimidin-4-ylthio)phenyl)acetonitrile], the GI50 in assay [1] and in assay [2] was more than 20 µM in each case.
Take `Cc1cnc(Nc2ccc(N3CCOCC3)cc2)nc1Sc1ccc(C=O)cc1` [Compound 219, 4-(5-methyl-2-(4-morpholinophenylao)pyrimidin-4-ylthio)benzaldehyde]: the GI50 in assay [1] and in assay [2] was less than 5 µM throughout.
For the compound `Cc1cnc(Nc2ccc(N3CCOCC3)cc2)nc1Sc1ccc(CO)cc1` [Compound 220, (4-(5-methyl-2-(4-morpholinophenylao)pyrimidin-4-ylthio)phenyl)methanol], the GI50 in assay [1] and in assay [2] was less than 5 µM each time.
As for `Cc1cnc(Nc2ccc(N3CCOCC3)cc2)nc1Sc1ccc(NC2CCOC2=O)cc1` (centres unmarked) [Compound 228, 3-(4-(5-methyl-2-(4-morpholinophenylao)pyrimidin-4-ylthio)phenylao)dihydrofuran-2(3H)-one], the GI50 in assay [1] and in assay [2] was more than 20 µM throughout.
For the compound `Cc1cnc(Nc2ccc(N3CCOCC3)cc2)nc1Sc1cccc(CO)c1` [Compound 212, (3-(5-methyl-2-(4-morpholinophenylao)pyrimidin-4-ylthio)phenyl)methanol], the GI50 in assay [1] and in assay [2] was more than 20 µM throughout.
Consider `Cc1cnc(Nc2cccc(S)c2)nc1Sc1ccc(NC(=O)CCl)cc1` [Compound 195, 2-chloro-N-(4-(2-(3-mercaptophenylao)-5-methylpyrimidin-4-ylthio)phenyl)acetamide], for which the GI50 was more than 20 µM in assay [1] and less than 20 µM in assay [2].
For `Cc1cnc(Nc2cccc(NS(C)(=O)=O)c2)nc1Sc1ccc(CO)cc1` [Compound 226, N-(3-(4-(4-(hydroxymethyl)phenylthio)-5-methylpyrimidin-2-ylao)phenyl)methanesulfonamide], in that order: less than 5 µM and less than 5 µM.
For `N#CCc1ccc(Sc2ccnc(Nc3ccc(N4CCOCC4)cc3)n2)cc1` [Compound 210, 2-(4-(2-(4-morpholinophenylao)pyrimidin-4-ylthio)phenyl)acetonitrile], in that order: more than 20 µM and more than 20 µM.
Consider `Cc1cnc(Nc2ccc(O)cc2)nc1Sc1ccc(N)cc1` [Compound 191, 4-(4-(4-aophenylthio)-5-methylpyrimidin-2-ylao)phenol], for which the GI50 in assay [1] and in assay [2] was less than 5 µM in each case.
In the case of `Cc1cnc(Nc2ccc(N3CCOCC3)cc2)nc1Sc1ccc(C(=O)N2CCCC2)cc1` [Compound 224, (4-(5-methyl-2-(4-morpholinophenylao)pyrimidin-4-ylthio)phenyl)(pyrrolidin-1-yl)methanone], the GI50 in assay [1] and in assay [2] was more than 20 µM in each case.
For the compound `C=CC(=O)Nc1cccc(Nc2nccc(SC)n2)c1` [Compound 7, N-(3-(4-(methylthio)pyrimidin-2-ylao)phenyl)acrylamide], the figures for the GI50 in assay [1] and in assay [2] were less than 20 µM and less than 5 µM, respectively.
For `Cc1cnc(Nc2ccc(N3CCOCC3)cc2)nc1Sc1ccc(N2CCSCC2=O)cc1` [Compound 197, 4-(4-(5-methyl-2-(4-morpholinophenylao)pyrimidin-4-ylthio)phenyl)thiomorpholin-3-one], in that order: more than 20 µM and more than 20 µM.
For `CON(C)C(=O)c1ccc(Sc2nc(Nc3ccc(N4CCOCC4)cc3)ncc2C)cc1` [Compound 218, N-methoxy-N-methyl-4-(5-methyl-2-(4-morpholinophenylao)pyrimidin-4-ylthio)benzamide], in that order: more than 20 µM and less than 20 µM.
Consider `c1cc(Sc2ccc(Cn3cncn3)cc2)nc(Nc2ccc(N3CCOCC3)cc2)n1` [Compound 204, 4-(4-((1H-1,2,4-triazol-1-yl)methyl)phenylthio)-N-(4-morpholinophenyl)pyrimidin-2-ae], for which the values for the GI50 in assay [1] and in assay [2] were less than 5 µM and less than 20 µM, respectively.
In the same order, the values of `N#Cc1c(N)ncn1Cc1cccc(Sc2ccnc(Nc3ccc(N4CCOCC4)cc3)n2)c1` [Compound 199, 4-ao-1-(3-(2-(4-morpholinophenylao)pyrimidin-4-ylthio)benzyl)-1H-imiazole-5-carbonitrile] are less than 5 µM and less than 20 µM.
In the same order, the values of `Cc1cnc(Nc2ccc(N3CCOCC3)cc2)nc1Sc1ccc(NC(=O)CO)cc1` [Compound 229, 2-hydroxy-N-(4-(5-methyl-2-(4-morpholinophenylao)pyrimidin-4-ylthio)phenyl)acetamide] are less than 20 µM and less than 20 µM.
As to `N#Cc1ncn(Cc2ccc(Sc3ccnc(Nc4ccc(N5CCOCC5)cc4)n3)cc2)c1N` [Compound 202, 5-ao-1-(4-(2-(4-morpholinophenylao)pyrimidin-4-ylthio)benzyl)-1H-imidazole-4-carbonitrile], the GI50 in assay [1] and in assay [2] was less than 5 µM throughout.
Regarding `N#Cc1c(N)ncn1Cc1ccc(Sc2ccnc(Nc3ccc(N4CCOCC4)cc3)n2)cc1` [Compound 203, 4-ao-1-(4-(2-(4-morpholinophenylao)pyrimidin-4-ylthio)benzyl)-1H-imidazole-5-carbonitrile], the GI50 in assay [1] and in assay [2] was less than 1 µM throughout.
`Cc1cnc(Nc2ccc(N3CCOCC3)cc2)nc1Sc1ccc(C(C#N)N2CCOCC2)cc1` (centres unmarked) [Compound 223, 2-(4-(5-methyl-2-(4-morpholinophenylao)pyrimidin-4-ylthio)phenyl)-2-morpholinoacetonitrile]: the GI50 in assay [1] was less than 5 µM; in assay [2], less than 20 µM.
